Test results published in the RepoRT retention time repository (doi:10.1021/acs.analchem.1c00972).

Test: RP, Waters ACQUITY UPLC BEH C18, 100 × 1 mm, 1.7 µm, 50 °C, 0.3 mL/min, estimated dead time 0.17 min; A: water + 0.1% formic acid + 20 mM ammonium formate; B: methanol + 0.1% formic acid + 20 mM ammonium formate; gradient (min/%B) 0/0 15/100 21/100 22/0 30/0
Conditions: stereoisomer not certain

[O-][n+]1nc(-n2ccnc2)nc2ccc(Cl)cc21 [Triazoxide]
LC retention time: 11.8 min

O=S(=O)(O)C(F)(F)F [Trifluoromethanesulfonic acid]
LC retention time: 2 min

COCCOCCOCCOC [Triglyme]
LC retention time: 8.28 min

COP(=O)(OC)OC [Trimethyl phosphate]
LC retention time: 6.17 min

CCOC(=O)C1CC(=O)C(=C(O)C2CC2)C(=O)C1 (stereo unspecified) [Trinexapac-ethyl]
LC retention time: 13.2 min

O=P(OCC(Cl)CCl)(OCC(Cl)CCl)OCC(Cl)CCl (stereo unspecified) [Tris(2,3-dichloropropyl) phosphate]
LC retention time: 15.6 min

CCCCC(CC)COP(=O)(OCC(CC)CCCC)OCC(CC)CCCC (stereo unspecified) [Tris(2-Ethylhexyl) phosphate]
LC retention time: 19.9 min

Cc1ccccc1OP(=O)(Oc1ccccc1C)Oc1ccccc1C [Tris(2-methylphenyl) phosphate (tri-o-cresyl phosphate)]
LC retention time: 17 min

O=C(OC1CC2CCC(C1)[N+]21CCCC1)C(O)(c1ccccc1)c1ccccc1 (stereo unspecified) [Trospium]
LC retention time: 14.2 min

CC(C)(c1ccccc1)c1cc(-n2nc3ccccc3n2)c(O)c(C(C)(C)c2ccccc2)c1 [UV-234]
LC retention time: 16.6 min

CC(C)(C)c1cc(-n2nc3ccccc3n2)c(O)c(C(C)(C)C)c1 [UV-320]
LC retention time: 19.8 min

Cc1cc(-n2nc3ccc(Cl)cc3n2)c(O)c(C(C)(C)C)c1 [UV-326]
LC retention time: 17.6 min

CC(C)(C)c1cc(-n2nc3ccc(Cl)cc3n2)c(O)c(C(C)(C)C)c1 [UV-327]
LC retention time: 10.2 min

CC1CCC2(C(=O)O)CCC3(C)C(=CCC4C5(C)CCC(O)C(C)(C)C5CCC43C)C2C1C (stereo unspecified) [Ursolic acid]
LC retention time: 18.5 min

O=C1CCCC=CCCCCCCCCCC1 [Velvione]
LC retention time: 18.1 min

O=c1c2ccccc2oc2ccccc12 [Xanthon]
LC retention time: 13.6 min

O=C(O)c1cc(=O)c2cccc(O)c2[nH]1 [Xanthurenic acid]
LC retention time: 6.8 min

Cc1cc(C(C)(C)C)cc(C)c1CC1=NCCN1 [Xylometazoline]
LC retention time: 12.4 min

Cc1cn(C2CC(N=[N+]=[N-])C(CO)O2)c(=O)[nH]c1=O (stereo unspecified) [Zidovudine]
LC retention time: 8.04 min

NS(=O)(=O)Cc1noc2ccccc12 [Zonisamide]
LC retention time: 8.02 min

CCCCCC(O)CC(=O)CCc1ccc(O)c(OC)c1 (stereo unspecified) [[6]-Gingerol]
LC retention time: 14 min

CC(=O)Nc1ccc(OC2OC(C(=O)O)C(O)C(O)C2O)cc1 (stereo unspecified) [acetaminophen_glucuronide]
LC retention time: 3.8 min

COc1ccc2c3c1OC1C(OC4OC(C(=O)O)C(O)C(O)C4O)C=CC4C(C2)N(C)CCC341 (stereo unspecified) [codeine-6-glucuronide]
LC retention time: 11.4 min

NCCc1ccc(OC2OC(C(=O)O)C(O)C(O)C2O)c(O)c1 (stereo unspecified) [dopamine_glucuronide]
LC retention time: 9.2 min

CNC(C)C(O)c1ccccc1 (stereo unspecified) [ephedrine]
LC retention time: 7.4 min

NC(=O)Cc1c[nH]c2ccccc12 [indoleacetamide]
LC retention time: 8 min

CCC(C(N)=O)N1CCCC1=O (stereo unspecified) [levetiracetam]
LC retention time: 6.9 min

Cc1cnc(NC(=O)C2=C(O)c3ccccc3S(=O)(=O)N2C)s1 [meloxicam]
LC retention time: 13.3 min

NC(Cc1ccccc1)C(=O)O (stereo unspecified) [phenylalanine]
LC retention time: 4.7 min

O=C1NC(=O)c2ccccc21 [phthalimide]
LC retention time: 7.8 min

C=CC1CN2CCC1CC2C(O)c1ccnc2ccc(OC)cc12 (stereo unspecified) [quinidine]
LC retention time: 9.5 min

CC12CCC(=O)C=C1CCC1C2CCC2(C)C(OC3OC(C(=O)O)C(O)C(O)C3O)CCC12 (stereo unspecified) [testosterone_glucuronide]
LC retention time: 13.6 min

O=C(O)/C=C/c1cccc(O)c1 [trans-3-Hydroxycinnamic acid]
LC retention time: 7.5 min

O=C(O)/C=C/c1ccccc1 [trans-Cinnamic acid]
LC retention time: 9.9 min

NCCc1c[nH]c2ccccc12 [tryptamine]
LC retention time: 7 min

NC(Cc1c[nH]c2ccccc12)C(=O)O (stereo unspecified) [tryptophan]
LC retention time: 6.3 min
